Experimental data as given in patent publication US8450270B2 (Indiana University Research and Technology Corporation, priority 2008, dated 2013).
pEC50: −log10 of the molar value. Square brackets hold non-standard residues; d marks the D form. Ends that are not written are not given here. Peptide text beside a SMILES is read from it. Dab = NCC[C@H](N)C(=O)O; Aib = CC(C)(N)C(=O)O

Columns and labels:
[1] = target: GLP-1 Receptor (Homo sapiens, UniProt P43220); experiment: Functional assay-cAMP synthesis (luciferase reporter, HEK293), GLP-1 receptor
Chain of GLP-1 Receptor (P43220 24-463, species assumed): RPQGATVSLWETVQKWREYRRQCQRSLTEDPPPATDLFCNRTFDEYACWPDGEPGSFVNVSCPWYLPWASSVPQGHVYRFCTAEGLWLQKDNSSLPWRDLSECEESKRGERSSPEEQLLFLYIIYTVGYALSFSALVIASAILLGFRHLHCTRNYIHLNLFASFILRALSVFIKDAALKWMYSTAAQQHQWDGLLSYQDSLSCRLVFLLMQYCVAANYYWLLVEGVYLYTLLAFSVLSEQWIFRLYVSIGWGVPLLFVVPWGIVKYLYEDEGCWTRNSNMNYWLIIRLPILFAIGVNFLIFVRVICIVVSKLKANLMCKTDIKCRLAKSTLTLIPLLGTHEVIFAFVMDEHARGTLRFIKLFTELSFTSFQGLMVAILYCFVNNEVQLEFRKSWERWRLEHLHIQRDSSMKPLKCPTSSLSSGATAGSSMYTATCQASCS
From the text: (§1) The luminescent light output indicates activation of the luciferase reporter gene, which in turn is a measure of the activation of the receptor.

[2] = target: Glucagon Receptor (Homo sapiens, UniProt P47871); experiment: Functional assay-cAMP synthesis (luciferase reporter, HEK293), glucagon receptor; settings: Table 8; glucagon receptor, wildtype glucagon = 100
Chain of Glucagon Receptor (P47871 26-477): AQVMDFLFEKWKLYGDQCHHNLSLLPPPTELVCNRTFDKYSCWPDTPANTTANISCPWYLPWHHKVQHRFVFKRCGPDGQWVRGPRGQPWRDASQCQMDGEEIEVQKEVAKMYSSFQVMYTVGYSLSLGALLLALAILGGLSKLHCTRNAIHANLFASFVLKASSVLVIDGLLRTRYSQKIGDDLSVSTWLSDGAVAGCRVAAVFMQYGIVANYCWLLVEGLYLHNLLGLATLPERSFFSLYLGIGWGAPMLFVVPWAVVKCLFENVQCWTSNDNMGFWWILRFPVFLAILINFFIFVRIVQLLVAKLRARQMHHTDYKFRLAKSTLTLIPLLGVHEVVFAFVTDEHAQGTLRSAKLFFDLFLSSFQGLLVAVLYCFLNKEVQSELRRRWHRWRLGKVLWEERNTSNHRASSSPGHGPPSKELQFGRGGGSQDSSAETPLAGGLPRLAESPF
From the text: as §1

[3] = Glucagon solubility assay; assay type: physicochemical

| Compound | pEC50 [1] | % activity* [2] | other results |
| --- | --- | --- | --- |
| CCCCCCCCCCCCCC(=O)NCCCC[C@H](NC(=O)[C@H](CC(=O)O)NC(=O)[C@H](CO)NC(=O)[C@@H](NC(=O)[C@H](Cc1ccccc1)NC(=O)[C@@H](NC(=O)CNC(=O)[C@H](CCC(N)=O)NC(=O)[C@@H](CO)NC(=O)[C@@H](N)Cc1c[nH]cn1)[C@@H](C)O)[C@@H](C)O)C(=O)N[C@@H](CO)C(=O)N[C@@H](CCCCN)C(=O)N[C@@H](Cc1ccc(O)cc1)C(=O)N[C@@H](CC(C)C)C(=O)N[C@@H](CC(=O)O)C(=O)N[C@@H](CCC(=O)O)C(=O)N[C@@H](CCCNC(=N)N)C(=O)N[C@@H](CCCNC(=N)N)C(=O)N[C@@H](C)C(=O)N[C@@H](CCCCN)C(=O)N[C@@H](CC(=O)O)C(=O)N[C@@H](Cc1ccccc1)C(=O)N[C@H](C(=O)N[C@@H](CCC(N)=O)C(=O)N[C@@H](Cc1c[nH]c2ccccc12)C(=O)N[C@@H](CC(C)C)C(=O)N[C@@H](CCSC)C(=O)N[C@@H](CC(N)=O)C(=O)N[C@H](C(N)=O)[C@@H](C)O)C(C)C [Peptide dS2K10(C14)E16K20-Gluc Amide, HXQGTFTSDKSKYLDERRAKDFVQWLMNT-amide] | 10.39 |  |  |
| CCCCCCCCCCCCCCCC(=O)NCCCC[C@H](NC(=O)[C@H](CC(=O)O)NC(=O)[C@H](CO)NC(=O)[C@@H](NC(=O)[C@H](Cc1ccccc1)NC(=O)[C@@H](NC(=O)CNC(=O)[C@H](CCC(N)=O)NC(=O)[C@@H](CO)NC(=O)[C@@H](N)Cc1c[nH]cn1)[C@@H](C)O)[C@@H](C)O)C(=O)N[C@@H](CO)C(=O)N[C@@H](CCCCN)C(=O)N[C@@H](Cc1ccc(O)cc1)C(=O)N[C@@H](CC(C)C)C(=O)N[C@@H](CC(=O)O)C(=O)N[C@@H](CCC(=O)O)C(=O)N[C@@H](CCCNC(=N)N)C(=O)N[C@@H](CCCNC(=N)N)C(=O)N[C@@H](C)C(=O)N[C@@H](CCCCN)C(=O)N[C@@H](CC(=O)O)C(=O)N[C@@H](Cc1ccccc1)C(=O)N[C@H](C(=O)N[C@@H](CCC(N)=O)C(=O)N[C@@H](Cc1c[nH]c2ccccc12)C(=O)N[C@@H](CC(C)C)C(=O)N[C@@H](CCSC)C(=O)N[C@@H](CC(N)=O)C(=O)N[C@H](C(N)=O)[C@@H](C)O)C(C)C [Peptide dS2K10(C16)E16K20-Gluc Amide, HXQGTFTSDKSKYLDERRAKDFVQWLMNT-amide] | 10.39 |  |  |
| CC(=O)NCC[C@H](NC(=O)[C@H](CO)NC(=O)[C@@H](N)Cc1c[nH]cn1)C(=O)NCC(=O)N[C@H](C(=O)N[C@@H](Cc1ccccc1)C(=O)N[C@H](C(=O)N[C@@H](CO)C(=O)N[C@@H](CC(=O)O)C(=O)N[C@@H](Cc1ccc(O)cc1)C(=O)N[C@@H](CO)C(=O)N[C@@H](CCCCN)C(=O)N[C@@H](Cc1ccc(O)cc1)C(=O)N[C@@H](CC(C)C)C(=O)N[C@@H](CC(=O)O)C(=O)NC(C)(C)C(=O)N[C@@H](CCCNC(=N)N)C(=O)N[C@@H](CCCNC(=N)N)C(=O)N[C@@H](C)C(=O)N[C@@H](CO)C(=O)N[C@@H](CC(=O)O)C(=O)N[C@@H](Cc1ccccc1)C(=O)N[C@H](C(=O)N[C@@H](CO)C(=O)N[C@@H](Cc1c[nH]c2ccccc12)C(=O)N[C@@H](CC(C)C)C(=O)N[C@@H](CC(C)C)C(=O)N[C@@H](CC(=O)O)C(=O)N[C@@H](CCC(=O)O)C(=O)O)C(C)C)[C@@H](C)O)[C@@H](C)O [SEQ ID NO: 73] (H-HS[Dab](Ac)GTFTSDYSKYLD[Aib]RRASDFVSWLLDE-OH; N-terminus and C-terminus assumed) |  | 54% |  |
| CC(=O)NCC[C@H](NC(=O)[C@H](CO)NC(=O)[C@@H](N)Cc1c[nH]cn1)C(=O)NCC(=O)N[C@H](C(=O)N[C@@H](Cc1ccccc1)C(=O)N[C@H](C(=O)N[C@@H](CO)C(=O)N[C@@H](CC(=O)O)C(=O)N[C@@H](Cc1ccc(O)cc1)C(=O)N[C@@H](CO)C(=O)N[C@@H](CCCCN)C(=O)N[C@@H](Cc1ccc(O)cc1)C(=O)N[C@@H](CC(C)C)C(=O)N[C@@H](CC(=O)O)C(=O)NC(C)(C)C(=O)N[C@@H](CCCNC(=N)N)C(=O)N[C@@H](CCCNC(=N)N)C(=O)N[C@@H](C)C(=O)N[C@H](C(=O)N[C@@H](CC(=O)O)C(=O)N[C@@H](Cc1ccccc1)C(=O)N[C@H](C(=O)N[C@H](C(=O)N[C@@H](Cc1c[nH]c2ccccc12)C(=O)N[C@@H](CC(C)C)C(=O)N[C@@H](CC(C)C)C(=O)N[C@@H](CC(=O)O)C(=O)N[C@@H](CCC(=O)O)C(=O)O)[C@@H](C)O)C(C)C)[C@@H](C)O)[C@@H](C)O)[C@@H](C)O [SEQ ID NO: 74] (H-HS[Dab](Ac)GTFTSDYSKYLD[Aib]RRATDFVTWLLDE-OH; N-terminus and C-terminus assumed) |  | 46% |  |
| Glucagon, Cys17PEG5K: Glucagon Cys17(1-29) reacted with methoxy poly(ethyleneglycol) maleimide avg. M.W.5000 |  |  | Percent Soluble ([3]; pH 7): 94% |
| HSQGTFTSDYSKYLESRRAQDFVQWLMDT [D28, E15] |  |  | solubility relative to native glucagon ([3]; pH values of 5.5 and 7.0, FIGS. 3 & 4): superior solubility |
